The results in this text go back to ChEMBL document CHEMBL1135130, “Substituted tetrahydrofuroyl-1-phenylalanine derivatives as potent and specific VLA-4 antagonists” (Bioorg Med Chem Lett, 2002).

By IC50 is commonly meant the midpoint of a concentration-inhibition curve. One may read the bioavailability as the share of a dose that reaches the circulation, judged against a reference dose that is usually intravenous. Low readings indicate little systemic uptake, high ones much systemic uptake.

The target in series [1] is T1, Integrin alpha-4/beta-1 (Homo sapiens, UniProt P05556+P13612). Briefly: Inhibition of alpha4-beta1 (very late) antigen binding with VCAM-1 immunoglobulin plus 5% human plasma. Format: cell-free.
Series [2] addresses T1, Integrin alpha-4/beta-1. Briefly: Inhibition of alpha4-beta1 (very late) antigen binding with VCAM-1 immunoglobulin. Type of series: protein-complex assay.
The target in series [3] is Integrin alpha-4/beta-7 (Homo sapiens) (UniProt P13612+P26010). Briefly: Selectivity for alpha4-beta7 to that of alpha4-beta1. Type of series: protein-complex assay.
For series [4], the target named is T2, Integrin alpha-4/beta-7 (Homo sapiens, UniProt P13612+P26010).
T2 sequence (P13612 whole entry): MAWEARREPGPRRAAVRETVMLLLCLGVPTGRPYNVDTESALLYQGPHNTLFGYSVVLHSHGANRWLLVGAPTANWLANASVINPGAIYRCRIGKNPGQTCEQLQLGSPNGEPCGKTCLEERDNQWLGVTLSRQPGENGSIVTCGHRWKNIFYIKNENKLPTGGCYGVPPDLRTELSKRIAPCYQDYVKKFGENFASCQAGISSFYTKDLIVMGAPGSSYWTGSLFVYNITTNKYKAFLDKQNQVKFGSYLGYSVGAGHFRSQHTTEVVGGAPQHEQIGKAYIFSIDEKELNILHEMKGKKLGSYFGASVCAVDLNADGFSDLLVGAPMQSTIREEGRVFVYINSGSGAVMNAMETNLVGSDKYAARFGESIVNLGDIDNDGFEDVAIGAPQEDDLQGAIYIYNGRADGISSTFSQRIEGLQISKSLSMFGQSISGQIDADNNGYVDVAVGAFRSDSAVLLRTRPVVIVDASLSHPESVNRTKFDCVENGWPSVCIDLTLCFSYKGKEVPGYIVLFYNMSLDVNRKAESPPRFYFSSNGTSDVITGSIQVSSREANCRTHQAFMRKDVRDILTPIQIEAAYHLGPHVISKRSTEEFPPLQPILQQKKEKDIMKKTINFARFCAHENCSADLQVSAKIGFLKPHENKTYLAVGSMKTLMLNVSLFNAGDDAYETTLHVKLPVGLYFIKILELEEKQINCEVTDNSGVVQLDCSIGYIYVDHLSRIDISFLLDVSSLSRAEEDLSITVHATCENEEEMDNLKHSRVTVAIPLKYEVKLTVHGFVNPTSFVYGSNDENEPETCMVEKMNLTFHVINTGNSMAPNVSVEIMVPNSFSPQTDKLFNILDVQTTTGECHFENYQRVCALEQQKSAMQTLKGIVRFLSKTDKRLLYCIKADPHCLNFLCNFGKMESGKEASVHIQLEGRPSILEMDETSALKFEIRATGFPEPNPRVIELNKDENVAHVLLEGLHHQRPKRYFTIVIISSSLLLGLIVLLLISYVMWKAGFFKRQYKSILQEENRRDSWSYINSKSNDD
T2 sequence (P26010 whole entry): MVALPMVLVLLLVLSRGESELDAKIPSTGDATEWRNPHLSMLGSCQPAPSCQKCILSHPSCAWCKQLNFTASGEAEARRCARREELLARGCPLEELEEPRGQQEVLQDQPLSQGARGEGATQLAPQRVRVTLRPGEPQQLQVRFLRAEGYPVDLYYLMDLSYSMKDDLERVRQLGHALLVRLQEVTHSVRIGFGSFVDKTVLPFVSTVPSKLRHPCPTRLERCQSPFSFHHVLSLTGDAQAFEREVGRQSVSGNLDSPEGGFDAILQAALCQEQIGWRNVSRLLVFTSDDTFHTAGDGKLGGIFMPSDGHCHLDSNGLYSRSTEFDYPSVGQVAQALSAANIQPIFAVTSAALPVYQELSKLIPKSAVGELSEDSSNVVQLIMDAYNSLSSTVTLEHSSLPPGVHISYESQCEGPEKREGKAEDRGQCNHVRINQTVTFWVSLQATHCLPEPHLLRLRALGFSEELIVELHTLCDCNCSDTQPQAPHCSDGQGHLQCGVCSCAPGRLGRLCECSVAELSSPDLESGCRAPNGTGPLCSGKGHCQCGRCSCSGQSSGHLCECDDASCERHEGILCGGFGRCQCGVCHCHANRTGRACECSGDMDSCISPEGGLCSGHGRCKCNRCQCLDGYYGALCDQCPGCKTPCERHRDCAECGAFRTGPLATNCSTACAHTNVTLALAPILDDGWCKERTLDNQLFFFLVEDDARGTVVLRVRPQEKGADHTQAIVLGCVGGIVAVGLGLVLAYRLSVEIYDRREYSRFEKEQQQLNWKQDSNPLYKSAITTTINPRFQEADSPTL
Briefly: Inhibition of alpha4-beta7 antigen with MAdCAM immunoglobulin. Format: protein-complex assay.

A short description of series [5]: Selectivity for alpha4-beta7 over alpha4-beta1 integrins.
The target in series [6] is T2, Integrin alpha-4/beta-7. Briefly: Inhibition of alpha4-beta7 integrin binding to MAdCAM immunoglobulin. Format: protein-complex assay.
Series [7] is described as follows: Plasma clearance determined. Type of series: ADME, organism-based. The note with it: read-out: Clp.
Series [8] can be described thus: Oral bioavailability. Type of series: ADME, organism-based. The note with it: eutheria, in vivo.

T1 sequence (P05556 whole entry, one chain of several): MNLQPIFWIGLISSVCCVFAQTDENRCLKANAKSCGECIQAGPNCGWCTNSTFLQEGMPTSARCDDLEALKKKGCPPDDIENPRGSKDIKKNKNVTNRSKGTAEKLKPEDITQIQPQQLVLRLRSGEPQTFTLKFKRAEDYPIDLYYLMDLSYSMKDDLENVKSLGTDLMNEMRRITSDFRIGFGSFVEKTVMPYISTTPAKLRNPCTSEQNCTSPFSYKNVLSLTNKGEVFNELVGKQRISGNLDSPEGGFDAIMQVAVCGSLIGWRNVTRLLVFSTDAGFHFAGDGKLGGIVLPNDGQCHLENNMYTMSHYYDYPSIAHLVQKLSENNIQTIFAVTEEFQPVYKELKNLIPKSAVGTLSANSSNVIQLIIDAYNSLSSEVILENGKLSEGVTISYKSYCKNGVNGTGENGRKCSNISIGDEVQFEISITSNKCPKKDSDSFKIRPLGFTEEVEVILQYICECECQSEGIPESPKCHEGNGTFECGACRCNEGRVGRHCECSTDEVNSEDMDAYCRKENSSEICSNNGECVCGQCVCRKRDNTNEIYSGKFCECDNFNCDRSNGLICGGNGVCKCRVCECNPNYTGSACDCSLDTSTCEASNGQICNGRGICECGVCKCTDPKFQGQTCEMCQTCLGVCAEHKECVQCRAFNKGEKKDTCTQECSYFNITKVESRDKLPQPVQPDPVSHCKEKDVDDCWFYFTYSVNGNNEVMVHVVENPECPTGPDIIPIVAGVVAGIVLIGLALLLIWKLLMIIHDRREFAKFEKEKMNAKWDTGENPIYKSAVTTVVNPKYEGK

Regarding `COc1ccccc1-c1ccc(C[C@H](NC(=O)[C@@]2(c3ccc(Br)cc3)CCCO2)C(=O)O)cc1`, the half-inhibitory concentration (IC50) in series [1] is 53 nM; in series [2], 3.62 nM; in series [4] it was 232 nM. Moreover, the Ratio in series [3] turned out to be 64.
In the same order, the values of `COc1ccccc1-c1ccc(C[C@H](NC(=O)[C@@]2(c3cccc(C(F)(F)F)c3)CCCO2)C(=O)O)cc1` are 290 nM, 4.65 nM, 327 nM and 70.
Take `COCC[C@]1(C(=O)N[C@@H](Cc2ccc(-c3c(OC)cccc3OC)cc2)C(=O)O)CCCO1`: the IC50 amounted to 1.99 nM in series [1], 0.7 nM in series [2] and 16.1 nM in series [4]. Besides, the Ratio in series [3] is 40.
In the same order, the values of `COc1cccc(OC)c1-c1ccc(C[C@H](NC(=O)[C@@]2(c3cccc([N+](=O)[O-])c3)CCCO2)C(=O)O)cc1` are 0.95 nM, 0.23 nM, 19.6 nM and 85.
The like results for `COc1ccccc1-c1ccc(C[C@H](NC(=O)[C@@]2(C)CCCO2)C(=O)O)cc1` were, in that order, 60.6 nM, 3.9 nM, 45.3 nM and 12.
The like results for `COCCCC[C@]1(C(=O)N[C@@H](Cc2ccc(-c3c(OC)cccc3OC)cc2)C(=O)O)CCCO1` were, in that order, 1.27 nM, 0.62 nM, 22 nM and 35.
As for `COc1ccccc1-c1ccc(C[C@H](NC(=O)[C@@]2(C(=O)N3CCOCC3)CCCO2)C(=O)O)cc1`, the IC50 in series [1] was found to be 1 nM; in series [2] it was 0.54 nM; in series [4], 8.49 nM. In addition, in series [3], the Ratio was 16.
For the molecule `COc1ccccc1-c1ccc(C[C@H](NC(=O)[C@@]2(CC(=O)N3CCOCC3)CCCO2)C(=O)O)cc1`, the Ratio in series [5] was 11. The results for the half-inhibitory concentration (IC50) in series [2] and in series [6] were 23.1 nM and 11 nM, respectively.
As for `COCCC[C@]1(C(=O)N[C@@H](Cc2ccc(-c3c(OC)cccc3OC)cc2)C(=O)O)CCCO1`, the IC50 in series [1] worked out at 0.61 nM; in series [2] it was 0.35 nM; in series [4], 7.8 nM. In addition, the Ratio in series [3] is 22. Moreover, the clearance in series [7] amounted to 81.8 mL/min/kg. The molecule also gave a bioavailability in series [8] of 1.9%.
Consider `COc1cccc(OC)c1-c1ccc(C[C@H](NC(=O)[C@@]2(C)CCCO2)C(=O)O)cc1`, for which the IC50 in series [1] came to 3.61 nM; in series [2] it was 0.34 nM; in series [4], 7.09 nM. Moreover, the Ratio in series [3] turned out to be 21. In series [7], the clearance was found to be 2.9 mL/min/kg. In addition, the bioavailability in series [8] was found to be 51%.
